The record followed here is US20240174680A1, “CDK2 INHIBITORS AND METHODS OF USING THE SAME” (Cedilla Therapeutics, Inc., priority 2021, published 2024).

pIC50: −log10 of the molar value.

This experiment concerns the target CDK2/Cyclin E1 (Homo sapiens, UniProt P24941). The experiment in a line: CDK2/Cyclin E1 Caliper LabChip EZ Reader mobility shift assay. It counts as biochemical. Details: purchased Eurofins 14-475. Particulars: read-out: Caliper Assay (CDK2/CCNE1): IC50. On the procedure: Inhibition of CDK2/Cyclin E1 activity in the presence of compounds of the present disclosure was evaluated using a Caliper LabChip® EZ Reader mobility shift assay. In the assay, CDK2/Cyclin E1 (Eurofins, 14-475) catalyzed the phosphorylation of a fluorescently tagged peptide 5-FAM-QSPKKG-CONH2 (PerkinElmer, FL Peptide 18) which induced a difference in capillary electrophoresis mobility. The peptide substrate and product were measured, and the conversion ratio was used to determine the inhibition (as % activity and IC50 values) of CDK2/Cyclin E1. Reactions contained 50 mM HEPES pH 7.5, 10 mM MgCl2, 1 mM EDTA, 2 mM DTT, 0.01% Brij35, 0.5 mg/mL BSA, 0.1% DMSO, 2.5 nM CDK2/Cyclin E1, 100 μM ATP, and 1.5 μM fluorescent peptide substrate.
Dose titrations of inhibitors in 100% DMSO were combined with 3.25 nM CDK2/Cyclin E1 and 130 μM of ATP in reaction buffer. The mixtures were incubated for 30 minutes before the addition of fluorescent peptide substrate to initiate the kinase reaction. The final conditions were 2.5 nM CDK2/Cyclin E1, 100 μM ATP, and 1.5 μM fluorescent peptide. The reactions were stopped after 100 minutes with the addition of EDTA (400 mM final EDTA concentration). The stopped reactions were analyzed on a Caliper LabChip® EZ Reader II. The conversion ratios were normalized to yield % activity, plotted against compound concentration, and fit to a four-parameter equation to determine the IC50 for each compound.

In the case of `C[C@@H](OCC12CCC(CC1)OC2)[C@H](NC(=O)[C@@H]1CN(C(=O)c2cncs2)CC12CN(C(=O)[C@H]1CC1(C)C)C2)C(=O)N1CCC(C(F)(F)F)CC1` [I-454, (S)—N-((2S,3R)-3-((2-oxabicyclo[2.2.2]octan-4-yl)methoxy)-1-oxo-1-(4-(trifluoromethyl)piperidin-1-yl)butan-2-yl)-2-((S)-2,2-dimethylcyclopropane-1-carbonyl)-6-(thiazole-5-carbonyl)-2,6-diazaspiro[3.4]octane-8-carboxamide], the pIC50 is at least 8.00.
As to `C[C@@H](OCC1CCOCC1)[C@H](NC(=O)[C@@H]1CN(C(=O)c2cncs2)CC12CN(C(=O)C(C)(C)C1CC1)C2)C(C)(C)O` [I-341], the pIC50 was 6.00 to 7.00.
For the compound `CNC(=O)[C@@H](NC(=O)[C@@H]1CN(C(=O)c2cnn(Cc3ccccc3)c2)CC12CN(C(=O)CC1CC1)C2)[C@@H](C)OCC1CCCCC1` [I-56A], the pIC50 is 6.00 to 7.00.
As for `CNC(=O)[C@@H](NC(=O)[C@@H]1CN(C(=O)c2scnc2Cl)CC12CN(C(=O)[C@H]1CC1(C)C)C2)[C@@H](C)OCC1CCCCC1` [I-157A], the figure is 7.00 to 8.00.
Consider `C[C@@H](OCC1CCCCC1)[C@H](NC(=O)C1CN(C(=O)c2cnn(Cc3ccccc3)c2)CC12CN(C(=O)[C@H]1CC1(C)C)C2)C(=O)N1CC2(CCC2)C1` (stereo partly shown) [I-107], for which the pIC50 was at least 8.00.
Then `C[C@@H](O)[C@H](NC(=O)[C@@H]1CN(C(=O)c2cnn(C)c2)CC12CN(C(=O)[C@H]1CC1(C)C)C2)C(=O)N1CCCCC1` [I-305], with under 5.00.
Then `CCC(CC)C(=O)N1CC2(CN(C(=O)c3cnn(Cc4ccccc4)c3)C[C@H]2C(=O)N[C@H](C(=O)NC)[C@@H](C)OCc2ccccc2)C1` [I-74A], with 5.00 to 6.00; and `CO[C@H]1COCC[C@@H]1NC(=O)[C@@H]1CN(C(=O)c2cnn(Cc3ccccc3)c2)CC12CN(C(=O)[C@H]1CC1(C)C)C2` [I-131A], with under 5.00.
Regarding `C[C@@H](OCC1CCC(F)(F)CC1)[C@H](NC(=O)[C@@H]1CN(C(=O)c2cn[nH]c2)CC12CN(C(=O)C1(C(F)(F)F)CC1)C2)C(=O)N1CCOCC1` [I-302], the pIC50 was 7.00 to 8.00.
Take `CO[C@H]1COCC[C@H]1NC(=O)[C@H]1CN(C(=O)c2cnn(Cc3ccccc3)c2)CC12CN(C(=O)[C@H]1CC1(C)C)C2` [I-134B]: the pIC50 is under 5.00.
Take `CNC(=O)[C@@H](NC(=O)[C@H]1CN(C(=O)c2ccccn2)CC12CN(C(=O)[C@H]1CC1(C)C)C2)[C@@H](C)OCc1ccccc1` [I-45B]: the pIC50 was under 5.00.
With `C[C@@H](OCC1CCC(F)(F)CC1)[C@H](NC(=O)[C@@H]1CN(C(=O)c2cncs2)CC12CN(C(=O)C(C)(C)C1CC1)C2)C(=O)N1CCC(O)CC1` [I-337], the pIC50 is at least 8.00.
As for `C[C@@H](OCc1ccccc1)[C@H](NC(=O)C1CN(C(=O)c2cnn(Cc3ccccc3)c2)CC12CN(C(=O)[C@H]1CC1(C)C)C2)C(=O)N1CCNCC1` (stereo partly shown) [I-32], the figure is 7.00 to 8.00.
`CNC(=O)[C@@H](NC(=O)[C@H]1CN(C(=O)c2scnc2C)CC12CN(C(=O)[C@H]1CC1(C)C)C2)[C@@H](C)OCC1CCCCC1` [I-160B]: the pIC50 is under 5.00.
As for `CNC(=O)[C@@H](NC(=O)[C@@H]1CN(Cc2ccncc2)CC12CN(C(=O)[C@H]1CC1(C)C)C2)[C@@H](C)OCc1ccccc1` [I-55A], the figure is under 5.00; as for `C[C@@H](OCc1ccccc1)[C@H](NC(=O)C1CN(C(=O)c2cnn(Cc3ccccc3)c2)CC12CN(C(=O)[C@H]1CC1(C)C)C2)C(=O)NCC#CCO` (stereo partly shown) [I-20], 7.00 to 8.00.
As for `COC(=O)[C@@H](NC(=O)[C@@H]1CN(C(=O)c2cnn(Cc3ccccc3)c2)CC12CN(C(=O)[C@H]1CC1(C)C)C2)[C@@H](C)OCC1CCCCC1` [I-475], the figure is at least 8.00; as for `C[C@@H](OCC1CCCCC1)[C@H](NC(=O)[C@@H]1CN(C(=O)c2cnn(CC(F)(F)F)c2)CC12CN(C(=O)[C@H]1CC1(C)C)C2)C(=O)N1CCCCC1` [I-132], 7.00 to 8.00; as for `CC1(C)C[C@@H]1C(=O)N1CC2(CN(C(=O)c3cnn(Cc4ccccc4)c3)C[C@H]2C(=O)Nc2ccc(Cc3ccccc3)cc2)C1` [I-84A], 5.00 to 6.00.
